Data as given in patent US20120022070A1, “Heat Shock Protein 90 Inhibitors, Methods Of Preparing Same, And Methods For Their Use” (EMORY UNIVERSITY, priority 2008, published 2012).
Where two headings read alike, the source gives them in different places.

Assays:
[1] = tested on: Her2 protein in MCF-7 breast cancer cells; experiment: Cell-based Her2 degradation assay by Western Blot; conditions: Homo sapiens
Description: Addition of Hsp90 inhibitors to cancer cells induces the proteasomal degradation of a subset of proteins involved in signal transduction such as Raf1 kinase, Akt and certain transmembrane tyrosine kinases such as Her2. Thus, Her2 degradation in cells is a functional read-out of Hsp90 inhibition. Correlation between Hsp90 binding and Her2 degradation in cancer cells is indicative of a selective biological effect in these cells via Hsp90.
A Western blot-based assay was used to measure the cellular level of Her2 protein in MCF-7 breast cancer cell lysates collected after 24 hours of compound treatment. […] Then 2×10^5 cells were seeded in 24 well plates in 500 μl PRMI1640 medium and allowed to attach overnight. The compounds were dissolved in DMSO, added to the wells, and incubated for 24 hours. The cells were washed using ice-cold phosphate-buffered saline (PBS) and lysed in 1% NP40 lysis buffer (10 mM HEPES, pH 7.4, 150 mM NaCl, 1% Nonident P-40, 5 mM Pyrophosphate, 5 mM NaF, 2 mM Orthovanadate, 10 ug/ml Aprotinin, 10 ug/ml Leupeptin, 1 mM PMSF). After boiling with 6×SDS sample buffer, the cell lysates were separated by SDS-PAGE and transferred to nitrocellulose membrane. The membranes were blocked with 5% milk in tris-buffered saline buffer.

[2] = tested on: tumor specific Hsp90 (NCI-N417 cell lysate); experiment: Hsp90 binding FP competition assay; set-up: species or system human
Description: There are several assays that have been developed to identify novel Hsp90 inhibitors based on the interaction of small molecules with recombinant Hsp90 protein, either yeast or human. To measure a therapeutically significant state of Hsp90, an FP assay that uses human cancer cell lysates instead of recombinant protein (Du, Moulick et al. J. Biomol. Screen, 2007, 12, 915-24) was utilized. It probes the interaction of small molecules with tumor-specific Hsp90 and may therefore lead to inhibitors that are not only selective for cancer cells but also specific for a particular malignancy.
The dose-response effect of the compounds was tested in Hsp90 binding FP competition assays to obtain the IC50 of the compounds. The Hsp90 FP competition assay was performed in 384-well black plate using the small-cell lung carcinoma (SCLC) cell line NCI-N417 as a source of tumor specific Hsp90 and the Cy3B-labeled geldanamycin (GM-cy3B) as the FP ligand. The compound was dissolved in DMSO and added at several concentrations to the reaction buffer containing both GM-cy3B (5 nM) and NCI-N417 cell lysate (1 μg/well) in a final volume of 50 μL. Free GM-cy3B (5 nM) and bound GM-cy3B with NCI-N417 cell lysate (5 nM GM-cy3B and 1 μg/well of NCI-N417 cell lysate) were included as controls in each plate. After incubating at room temperature for 2 to 16 hours, the polarization values were measured and expressed as millipolarization (mP) units using Analyst HT plate reader (Molecular Devices). The competitive efficiency of the compounds were expressed as a percentage of control and calculated according to the following equation:
% of control=((mPc−mPf)/(mPb−mPf))×100
where mPc is the recorded mP from compound wells, mPf is the average recorded mP from GM-cy3B-only wells, and mPb is the average recorded mP from wells containing both GM-cy3B and NCI-N417 lysate. IC50 values were determined using a nonlinear regression analysis as implemented in Prism 4.0 (Graphpad Software).

[3] = tested on: SKBR3 breast cancer cells; experiment: Cancer cell growth inhibition assay (CellTiter-Blue); format: cell-based; conditions: Homo sapiens, SK-BR-3, Table 2, 96 hours
Procedure: The effects of the compounds on cancer cell growth were determined using the CellTiter-Blue cell viability assay (Promega). CellTiter-Blue® Cell Viability is based on the ability of living cells to convert a redox dye (resazurin) into a fluorescent end product (resorufin).
The SKBR3 breast cancer cells were plated in 384-well microtiter plates (Costar) and allowed to attach overnight. After treatment with either compounds or vehicle (DMSO) for 96 hours, the cells were measured for their viability by CellTiter-Blue. Briefly, 10 μl of CelTiter-Blue were added to each well in 384-well plates and incubated at 37° C. for 4 hours. The fluorescence intensity (FI) was measured using the Analyst HT plate reader (Molecular Devices) with an excitation at 545 nm and emission at 595 nm. The IC50 was calculated as the compound concentration that inhibits cell viability by 50% compared with vehicle control wells. The IC50 values were determined as described above.

[4] = tested on: Her2 protein in SKBr3 breast cancer cells; experiment: Cell-based Her2 degradation assay by Cytoblot; conditions: Homo sapiens, SK-BR-3, Table 2, values with asterisk, 24 hours
Procedure: Cellular Her2 level after compound treatment was also monitored by microtiter-based Her2 degradation assay, Cytoblot assay (Huezo, Vilenchik et al. Chem. Biol., 2003, 10, 629-634). This is a cell-based assay that enables the quantitative analysis of intracellular levels of Her2 protein.
The human breast cancer cell lines SKBr3 were maintained in RPMI1640 medium supplemented with 10% FBS. 3000 cells in 100 μl of growth medium were plated per well in black, clear-bottom microtiter plates (Corning) and allowed to attach for at least 24 hours at 37° C. and 5% CO2. Compounds at different doses or vehicle (DMSO) were carefully added to the wells and incubated for 24 hours. The cells were washed twice with ice-cold Tris buffer saline (TBS) containing 0.1% Tween 20 (TBST) and fixed with ice-cold methanol. After washing with TBST, the plate was incubated at RT for 1 hour with SuperBlock (Pierce 37535) and overnight at 4° C. with the anti-Her-2 antibody (Santa Cruz Biotechnology). The plate was then washed with TBST and incubated at RT for 2 hours with an anti-rabbit HRP-linked antibody (Sigma A0545). The chemiluminescent substrate solution (Pierce 38040) was added and the plate was read 5 minutes later in an Analyst HT plate reader (Molecular Devices). Luminescence readings resulting from compound-treated cells versus untreated cells (vehicle treated) were quantified and plotted against compound concentrations to give the IC50 values (defined as concentration of compound required to degrade 50% of total Her2).

[5] = MCF7, Table 1, MCF-7 cells, 24 hours of compound treatment, read-out: Her2 degradation WB IC50
[6] = MCF7, 24 h, read-out: Her2 degradation WB IC50

| SMILES | IC50 [1, 5] | IC50 ([2]; Table 1, GM-cy3B 5 nM) | IC50 [1, 6] | also measured |
| --- | --- | --- | --- | --- |
| O=C1C=C(Nc2ccccc2)c2ncccc2C1=O [Compound 1] | ~2.5 µM | – | – | – |
| O=C1C(=O)c2cccnc2C(NC2CC3CCC2C3)=C1Cl (stereo not shown) [Compound 2] | ~2.5 µM | – | – | – |
| O=C1C(=O)c2cccnc2C(NCc2ccccc2)=C1Cl [Compound 3] | ~2.5 µM | – | – | – |
| NC1=CC(=O)C(=O)c2cccnc21 [Compound 4] | > 20 µM | – | – | – |
| CN(C)C1=C(Cl)C(=O)C(=O)c2cccnc21 [Compound 5] | > 20 µM | – | – | – |
| CCN(CC)C1=C(Cl)C(=O)C(=O)c2cccnc21 [Compound 6] | > 20 µM | – | – | – |
| N#CCCCCNC1=CC(=O)C(=O)c2cccnc21 [Compound 10] | ~10 µM | – | – | – |
| CC(N)CCCNC1=CC(=O)C(=O)c2cccnc21 (stereo not shown) [Compound 11] | 2.5 to 5 µM | – | – | – |
| Cc1ccnc(NC2=CC(=O)C(=O)c3ccccc32)c1 [Compound 12] | ~10 µM | < 0.39 µM | – | – |
| Cc1ccc(NC2=CC(=O)C(=O)c3ccccc32)c(C)c1 [Compound 13] | – | 1.85 µM | < 5 µM | – |
| O=C1C=C(Nc2ncccn2)c2ccccc2C1=O [Compound 14] | 1 to 10 µM | 0.45 µM | – | – |
| Cc1ccc(NC2=CC(=O)C(=O)c3ccccc32)cc1 [Compound 15] | – | 0.96 µM | ~10 µM | – |
| O=C1C=C(Nc2cccnc2)c2ccccc2C1=O [Compound 16] | ~10 µM | 0.67 µM | – | – |
| O=C1C=C(NCCc2ccccc2)c2ccccc2C1=O [Compound 17] | ~10 µM | 4 µM | – | – |
| CN(C1=CC(=O)C(=O)c2ccccc21)c1ccccc1 [Compound 18] | – | 0.39 µM | ~10 µM | – |
| O=C1C=C(Nc2ccc(Cl)cc2)c2ccccc2C1=O [Compound 19] | – | 0.68 µM | < 10 µM | – |
| O=C1C=C(Nc2cccc(O)c2)c2ccccc2C1=O [Compound 20] | ~10 µM | 0.6 µM | – | – |
| CCOc1ccc(NC2=CC(=O)C(=O)c3ccccc32)cc1 [Compound 21] | ~10 µM | 1 µM | – | – |

| SMILES | IC50 [1, 5] | IC50 ([2]; Table 1, GM-cy3B 5 nM) | IC50 [1, 6] | also measured |
| --- | --- | --- | --- | --- |
| O=C1C=C(NCCCCC2CCCCC2)c2ccccc2C1=O [Compound 22] | > 30 µM | – | – | FP Assay IC50 ([2]; Table 1, GM-cy3B 5 nM): inactive |
| O=C1C=C(N2CCOCC2)c2ccccc2C1=O [Compound 23] | – | 0.63 µM | ~10 µM | – |
| C=CCN(CC=C)C1=CC(=O)C(=O)c2ccccc21 [Compound 24] | ~10 µM | 2.19 µM | – | – |
| Cc1ccc(C)c(NC2=CC(=O)C(=O)c3ccccc32)c1 [Compound 25] | – | 1.59 µM | > 30 µM | – |
| Cc1cccc(C)c1NC1=CC(=O)C(=O)c2ccccc21 [Compound 26] | – | 3.9 µM | > 10 µM | – |
| O=C1C=C(Nc2cccc(Br)c2)c2ccccc2C1=O [Compound 27] | > 30 µM | – | – | – |
| O=C1C=C(Nc2cccc(Cl)c2)c2ccccc2C1=O [Compound 28] | – | – | > 30 µM | – |
| Cc1ccc(NC2=CC(=O)C(=O)c3ccccc32)cc1C [Compound 29] | < 10 µM | 1.07 µM | – | – |
| O=C1C=C(Nc2ccccc2)c2ccccc2C1=O [Compound 32] | – | 7.4 µM | < 30 µM | – |
| CCc1cccc(CC)c1NC1=CC(=O)C(=O)c2ccccc21 [Compound 34] | – | 3.55 µM | > 30 µM | – |
| O=C1C=C(Nc2ccc(Br)cc2)c2ccccc2C1=O [Compound 36] | – | 1.4 µM | ~30 µM | – |
| O=C1C=C(Nc2ccc(Cl)cc2Cl)c2ccccc2C1=O [Compound 37] | – | 4.7 µM | ~30 µM | – |
| Cc1cccc(NC2=CC(=O)C(=O)c3ccccc32)c1 [Compound 41] | – | 1.06 µM | ≥ 10 µM | – |
| O=C1C=C(Nc2ccc(O)cc2)c2ccccc2C1=O [Compound 43] | – | < 0.39 µM | ~10 µM | – |
| CCN(CC)C1=CC(=O)C(=O)c2ccccc21 [Compound 48] | – | 0.69 µM | 5 to 10 µM | – |
| O=C1C=C(N2CCN(Cc3cccc(C(F)(F)F)c3)CC2)c2ccccc2C1=O [Compound 56] | – | – | – | IC50 [3]: 0.3 µM; IC50 [4]: 1.9 µM; IC50 ([2]; Table 2, GM-cy3B 5 nM): 0.53 µM |
| O=C1C=C(N2CCN(c3cccc4ccccc34)CC2)c2ccccc2C1=O [Compound 57] | – | – | – | IC50 [3]: 0.22 µM; IC50 [4]: 3.9 µM; IC50 ([2]; Table 2, GM-cy3B 5 nM): 0.89 µM |
| Cc1ccc(NC2=CC(=O)C(=O)c3ccccc32)c(C(=O)O)c1 [Compound 68] | – | – | – | IC50 ([1]; MCF7, Table 2, values without asterisk, MCF-7 cells, 24 hours, read-out: IC50, Her2 degradation WB): > 30 µM; IC50 [3]: > 20 µM |

The next lines start with results.

| IC50 [1, 5] | IC50 ([2]; Table 1, GM-cy3B 5 nM) | SMILES | IC50 [1, 6] | also measured |
| --- | --- | --- | --- | --- |
| > 30 µM | 1.33 µM | O=C1C=C(Nc2cccc(C(=O)O)c2)c2ccccc2C1=O [Compound 30] | – | – |
| 10 to 30 µM | 2.18 µM | NC1=CC(=O)C(=O)c2ccccc21 [Compound 31] | – | – |
| > 30 µM | 3.06 µM | O=C1C=C(Nc2cc(Cl)ccc2Cl)c2ccccc2C1=O [Compound 33] | – | – |
| > 30 µM | 3 µM | Cc1cc(Br)ccc1NC1=CC(=O)C(=O)c2ccccc21 [Compound 35] | – | – |
| ~30 µM | 2.6 µM | CCCCCCN(CCCCCC)C1=CC(=O)C(=O)c2ccccc21 [Compound 38] | – | – |
| > 30 µM | 4.2 µM | NC(=O)C(=O)CC(=O)c1ccccc1NC1=CC(=O)C(=O)c2ccccc21 [Compound 39] | – | – |
| > 30 µM | 10.5 µM | O=C1C=C(Nc2ccccc2C(=O)CC(=O)C(=O)Nc2ccc(Cl)c(Cl)c2)c2ccccc2C1=O [Compound 40] | – | – |
| ~10 µM | 0.81 µM | COc1cccc(NC2=CC(=O)C(=O)c3ccccc32)c1 [Compound 42] | – | – |
| > 30 µM | 1.73 µM | CC(C)c1cccc(C(C)C)c1NC1=CC(=O)C(=O)c2ccccc21 [Compound 44] | – | – |
| 5 to 10 µM | 0.22 µM | CC(C)(C)OC(=O)N1CCN(C2=CC(=O)C(=O)c3ccccc32)CC1 [Compound 46] | – | – |
| 5 to 10 µM | 0.39 µM | CN1CCN(C2=CC(=O)C(=O)c3ccccc32)CC1 [Compound 47] | – | – |
| > 10 µM | 0.23 µM | COc1ccc(NC2=CC(=O)C(=O)c3ccccc32)c([N+](=O)[O-])c1 [Compound 52] | – | – |
